Data published in patent publication US12528812B2 (Genentech, Inc., priority 2020, dated 2026).
pIC50, pKi: −log10 of the molar value.

Experiments:
[1] = biological target: Recombinant human JAK2 kinase domain protein (Residues 812-1132) (Homo sapiens, UniProt O60674); assay: JAK2 biochemical assay (LabChip mobility shift, Ki); conditions: Biochem JAK2 Ki
[2] = system: IL-13-stimulated STAT6 phosphorylation in human lung bronchial epithelial BEAS-2B cell line; assay: P-STAT6 BEAS-2B + IL-13 cell assay; format: cell-based; conditions: Homo sapiens, BEAS-2B, BEAS2B cells, IL13 stimulation; read-out: Cellular JAK1 PSTAT6 BEAS2B + IL13
Summary of the method: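 BEAS-2B cells grown 48 h at 37 °C, pre-treated 1 h with compound (10-point 1:2 dilution curve), then stimulated 15 min with human recombinant IL-13 (250 ng/mL stock). Lysate P-STAT6 (Tyr641) read by MSD sandwich ELISA with total-STAT6 capture; IC50 from four-parameter logistic fit of control-normalised data.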

[3] = biological target: T1, recombinant human JAK1 kinase domain protein (Residues 854-1154) (Homo sapiens, UniProt P23458); assay: JAK1 biochemical assay (LabChip mobility shift, Ki); conditions: read-out: Biochem JAK1 Ki
T1 construct: human JAK1 kinase domain protein (Residues 854-1154); purchased Proteros Biostructures GmbH (Martinsried, Germany); host or cells: insect cells
T1 sequence (P23458 854-1154): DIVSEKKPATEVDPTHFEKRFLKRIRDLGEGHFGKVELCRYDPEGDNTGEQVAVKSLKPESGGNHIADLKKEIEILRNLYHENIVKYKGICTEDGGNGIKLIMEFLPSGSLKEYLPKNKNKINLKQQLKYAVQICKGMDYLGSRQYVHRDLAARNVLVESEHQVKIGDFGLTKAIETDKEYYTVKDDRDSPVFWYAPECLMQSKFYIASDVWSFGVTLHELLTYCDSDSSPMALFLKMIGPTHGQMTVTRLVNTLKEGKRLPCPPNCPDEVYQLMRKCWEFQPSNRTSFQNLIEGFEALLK

Recombinant human JAK2 kinase domain protein (Residues 812-1132), sequence (O60674 812-1132): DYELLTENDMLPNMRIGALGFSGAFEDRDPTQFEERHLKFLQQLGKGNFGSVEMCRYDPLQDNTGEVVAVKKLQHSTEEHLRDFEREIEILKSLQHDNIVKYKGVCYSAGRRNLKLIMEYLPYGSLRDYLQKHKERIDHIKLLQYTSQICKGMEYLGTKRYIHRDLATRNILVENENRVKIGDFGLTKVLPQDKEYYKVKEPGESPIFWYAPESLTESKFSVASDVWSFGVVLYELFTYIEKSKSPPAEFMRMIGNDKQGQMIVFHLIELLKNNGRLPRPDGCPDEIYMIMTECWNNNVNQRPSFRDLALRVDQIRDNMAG

SMILES	pKi [1]	pKi [3]	pIC50 [2]
Cn1cc(NC(=O)c2cnn3cccnc23)c(-c2cc(Oc3cccc(-n4nccc4CN)c3)ccc2OC(F)F)n1 [Example 57, N-[3-[5-[3-[5-(aminomethyl)pyrazol-1-yl]phenoxy]-2-(difluoromethoxy)phenyl]-1-methyl-pyrazol-4-yl]pyrazolo[1,5-a]pyrimidine-3-carboxamide]	9.16	9.04	7.43
CN(CC(=O)N(C)C)Cc1cccc(Oc2ccc(OC(F)F)c(-c3nn(C)cc3NC(=O)c3cnn4cccnc34)c2)c1 [Example 60]	9.12	9.09	7.46
Cn1cc(NC(=O)c2cnn3cccnc23)c(-c2cc(Oc3ccc(CN4CCOCC4)cc3)ccc2OC(F)F)n1 [Example 61, N-[3-[2-(difluoromethoxy)-5-[4-(morpholinomethyl)phenoxy]phenyl]-1-methyl-pyrazol-4-yl]pyrazolo[1,5-a]pyrimidine-3-carboxamide]	8.54	8.29	6.89
CN1CCc2cc(Oc3ccc(OC(F)F)c(-c4nn(C)cc4NC(=O)c4cnn5cccnc45)c3)ccc2C1 [Example 64, N-[3-[2-(difluoromethoxy)-5-[(2-methyl-3,4-dihydro-1H-isoquinolin-6-yl)oxy]phenyl]-1-methyl-pyrazol-4-yl]pyrazolo[1,5-a]pyrimidine-3-carboxamide]	9.24	8.77	7.23
NCc1ccnn1-c1cccc(Oc2ccc(OC(F)F)c(-c3n[nH]cc3NC(=O)c3cnn4cccnc34)c2)c1 [Example 65, N-[3-[5-[3-[5-(aminomethyl)pyrazol-1-yl]phenoxy]-2-(difluoromethoxy)phenyl]-1H-pyrazol-4-yl]pyrazolo[1,5-a]pyrimidine-3-carboxamide]	9.20	9.07	6.92
CNCc1ccnn1-c1cccc(Oc2ccc(OC(F)F)c(-c3nn(C)cc3NC(=O)c3cnn4cccnc34)c2)c1 [Example 66, N-[3-[2-(difluoromethoxy)-5-[3-[5-(methylaminomethyl)pyrazol-1-yl]phenoxy]phenyl]-1-methyl-pyrazol-4-yl]pyrazolo[1,5-a]pyrimidine-3-carboxamide]	8.44	8.41	6.89
CC(C)(C#N)c1ccc(Oc2ccc(OC(F)F)c(-c3n[nH]cc3NC(=O)c3cnn4cccnc34)c2)cc1 [Example 67, N-[3-[5-[4-(1-cyano-1-methyl-ethyl)phenoxy]-2-(difluoromethoxy)phenyl]-1H-pyrazol-4-yl]pyrazolo[1,5-a]pyrimidine-3-carboxamide]	8.92	8.68	7.60
Cn1cc(NC(=O)c2cnn3cccnc23)c(-c2cc(Oc3ccc4c(c3)CN(C3COC3)CC4)ccc2OC(F)F)n1 [Example 69, N-[3-[2-(difluoromethoxy)-5-[[2-(oxetan-3-yl)-3,4-dihydro-1H-isoquinolin-7-yl]oxy]phenyl]-1-methyl-pyrazol-4-yl]pyrazolo[1,5-a]pyrimidine-3-carboxamide]	9.28	8.89	7.43
COC1(c2cccc(Oc3ccc(OC(F)F)c(-c4nn(C)cc4NC(=O)c4cnn5cccnc45)c3)c2)CN(C)C1 [Example 71, N-[3-[2-(difluoromethoxy)-5-[3-(3-methoxy-1-methyl-azetidin-3-yl)phenoxy]phenyl]-1-methyl-pyrazol-4-yl]pyrazolo[1,5-a]pyrimidine-3-carboxamide]	9.06	9.03	7.33
Cn1cc(NC(=O)c2cnn3cccnc23)c(-c2cc(Oc3cccc(CN[C@H]4C[C@H](O)C4)c3)ccc2OC(F)F)n1 [Example 72, N-[3-[2-(difluoromethoxy)-5-[3-[[(3-hydroxycyclobutyl)amino]methyl]phenoxy]phenyl]-1-methyl-pyrazol-4-yl]pyrazolo[1,5-a]pyrimidine-3-carboxamide]	9.13	9.04	7.21
CN(C)CCn1cc(Oc2ccc(OC(F)F)c(-c3nn(C)cc3NC(=O)c3cnn4cccnc34)c2)cn1 [Example 73, N-[3-[2-(difluoromethoxy)-5-[1-[2-(dimethylamino)ethyl]pyrazol-4-yl]oxy-phenyl]-1-methyl-pyrazol-4-yl]pyrazolo[1,5-a]pyrimidine-3-carboxamide]	8.77	8.80	7.02
Cn1cc(NC(=O)c2cnn3cccnc23)c(-c2cc(Oc3cncc(CN)c3)ccc2OC(F)F)n1 [Example 77, N-[3-[5-[[5-(aminomethyl)-3-pyridyl]oxy]-2-(difluoromethoxy)phenyl]-1-methyl-pyrazol-4-yl]pyrazolo[1,5-a]pyrimidine-3-carboxamide]	8.60	8.59	7.48
Cn1cc(NC(=O)c2cnn3cccnc23)c(-c2cc(Oc3cccc(C(=O)N4CCC(N5CCOCC5)CC4)c3)ccc2OC(F)F)n1 [Example 81, N-[3-[2-(difluoromethoxy)-5-[3-(4-morpholinopiperidine-1-carbonyl)phenoxy]phenyl]-1-methyl-pyrazol-4-yl]pyrazolo[1,5-a]pyrimidine-3-carboxamide]	9.32	9.33	7.59
CN1CCN(C(=O)c2ccc(Oc3ccc(OC(F)F)c(-c4nn(C)cc4NC(=O)c4cnn5cccnc45)c3)cc2)CC1 [Example 86, N-[3-[2-(difluoromethoxy)-5-[4-(4-methylpiperazine-1-carbonyl)phenoxy]phenyl]-1-methyl-pyrazol-4-yl]pyrazolo[1,5-a]pyrimidine-3-carboxamide]	9.25	8.96	7.11

More lines, main results first:

pKi [1]	pKi [3]	SMILES	pIC50 [2]
9.62	9.46	CN(C)C(=O)c1cccc(Oc2ccc(OC(F)F)c(-c3nn(C)cc3NC(=O)c3cnn4cccnc34)c2)c1 [Example 62, N-[3-[2-(difluoromethoxy)-5-[3-(dimethylcarbamoyl)phenoxy]phenyl]-1-methyl-pyrazol-4-yl]pyrazolo[1,5-a]pyrimidine-3-carboxamide]	7.85
9.38	8.77	Cn1cc(NC(=O)c2cnn3cccnc23)c(-c2cc(Oc3ccc4c(c3)CCNC4)ccc2OC(F)F)n1 [Example 63, N-[3-[2-(difluoromethoxy)-5-(1,2,3,4-tetrahydroisoquinolin-6-yloxy)phenyl]-1-methyl-pyrazol-4-yl]pyrazolo[1,5-a]pyrimidine-3-carboxamide]	7.33
9.59	9.57	Cn1cc(NC(=O)c2cnn3cccnc23)c(-c2cc(Oc3cccc(C4(F)CNC4)c3)ccc2OC(F)F)n1 [Example 70, N-[3-[2-(difluoromethoxy)-5-[3-(3-fluoroazetidin-3-yl)phenoxy]phenyl]-1-methyl-pyrazol-4-yl]pyrazolo[1,5-a]pyrimidine-3-carboxamide]	7.64
9.59	9.21	Cc1cc(Oc2ccc(OC(F)F)c(-c3nn(C)cc3NC(=O)c3cnn4cccnc34)c2)ccc1C(=O)N(C)C [Example 74, N-[3-[2-(difluoromethoxy)-5-[4-(dimethylcarbamoyl)-3-methyl-phenoxy]phenyl]-1-methyl-pyrazol-4-yl]pyrazolo[1,5-a]pyrimidine-3-carboxamide]	7.52
9.57	9.40	Cn1cc(NC(=O)c2cnn3cccnc23)c(-c2cc(Oc3ccc4c(c3)CN(CCO)CC4)ccc2OC(F)F)n1 [Example 76, N-[3-[2-(difluoromethoxy)-5-[[2-(2-hydroxyethyl)-3,4-dihydro-1H-isoquinolin-7-yl]oxy]phenyl]-1-methyl-pyrazol-4-yl]pyrazolo[1,5-a]pyrimidine-3-carboxamide]	7.92
9.66	9.51	CN(C)C(=O)c1cc(Oc2ccc(OC(F)F)c(-c3nn(C)cc3NC(=O)c3cnn4cccnc34)c2)ccc1Cl [Example 78, N-[3-[5-[4-chloro-3-(dimethylcarbamoyl)phenoxy]-2-(difluoromethoxy)phenyl]-1-methyl-pyrazol-4-yl]pyrazolo[1,5-a]pyrimidine-3-carboxamide]	7.68
9.46	9.46	Cn1cc(NC(=O)c2cnn3cccnc23)c(-c2cc(Oc3cccc(C(=O)N4CCNCC4)c3)ccc2OC(F)F)n1 [Example 80, N-[3-[2-(difluoromethoxy)-5-[3-(piperazine-1-carbonyl)phenoxy]phenyl]-1-methyl-pyrazol-4-yl]pyrazolo[1,5-a]pyrimidine-3-carboxamide]	7.21
9.33	9.32	CN1CCN(C(=O)c2cccc(Oc3ccc(OC(F)F)c(-c4nn(C)cc4NC(=O)c4cnn5cccnc45)c3)c2)CC1 [Example 84, N-[3-[2-(difluoromethoxy)-5-[3-(4-methylpiperazine-1-carbonyl)phenoxy]phenyl]-1-methyl-pyrazol-4-yl]pyrazolo[1,5-a]pyrimidine-3-carboxamide]	7.13
9.40	8.89	Cc1cc(Oc2ccc(OC(F)F)c(-c3nn(C)cc3NC(=O)c3cnn4cccnc34)c2)ccc1C(=O)N1CCN(C)CC1 [Example 85, N-[3-[2-(difluoromethoxy)-5-[3-methyl-4-(4-methylpiperazine-1-carbonyl)phenoxy]phenyl]-1-methyl-pyrazol-4-yl]pyrazolo[1,5-a]pyrimidine-3-carboxamide]	6.96
